Experiment: Release (dissolution) profile of capsules, USP Apparatus 2 (paddle)
Assay type: physicochemical
Text: USP Apparatus 2 (Paddle Apparatus) is described, for example, in the United States Pharmacopeial Convention, Feb. 1, 2012, Chapter <711> (“Dissolution”), incorporated by reference herein in its entirety. See http://www.usp.org/sites/default/files/usp_pdf/EN/USPNF/revisions/m99470-gc_711.pdf. The assembly from Apparatus 1 is used, except that a paddle formed from a blade and a shaft is used as the stirring element. The shaft is positioned so that its axis is not more than 2 mm from the vertical axis of the vessel at any point and rotates smoothly without significant wobble that could affect the results. The vertical center line of the blade passes through the axis of the shaft so that the bottom of the blade is flush with the bottom of the shaft. A distance of 25±2 mm between the bottom of the blade and the inside bottom of the vessel is maintained during the test. The metallic or suitably inert, rigid blade and shaft comprise a single entity. A suitable two-part detachable design may be used provided the assembly remains firmly engaged during the test. The paddle blade and shaft may be coated with a suitable coating so as to make them inert. The dosage unit is allowed to sink to the bottom of the vessel before rotation of the blade is started. A small, loose piece of nonreactive material, such as not more than a few turns of wire helix, may be attached to dosage units that would otherwise float. Other validated sinker devices may be used.
Unless otherwise specified, the release profiles for capsules were measured using USP Apparatus 2 (paddle).
All release profiles disclosed in Tables 3c-3p were measured with USP Apparatus 2 (paddle) at 50 rpm in 500 mL of aqueous sodium phosphate at a concentration of 0.05 M (pH=6.8). The values in a given table relate to capsules obtained from the same batch. Values shown represent mean values over a number of dissolution tests (“n” in each table) in each case.

- mean value (n = 6) of % of Compound 1 released (Table 3k: size 4 capsule, 0.03 mg Compound 1, Poloxamer 188:food grade GMS 50:50, 360 min): 91.4%
- mean value (n = 6) of % of Compound 1 released (Table 3k: size 4 capsule, 0.03 mg Compound 1, Poloxamer 188:food grade GMS 50:50, 480 min): 98.3%
- mean value (n = 4) of % of Compound 1 released (Table 3l: size 4 capsule, 0.5 mg Compound 1, Poloxamer 188:food grade GMS 50:50, 30 min): 9.9%
- mean value (n = 4) of % of Compound 1 released (Table 3l: size 4 capsule, 0.5 mg Compound 1, Poloxamer 188:food grade GMS 50:50, 60 min): 22.2%
- mean value (n = 4) of % of Compound 1 released (Table 3l: size 4 capsule, 0.5 mg Compound 1, Poloxamer 188:food grade GMS 50:50, 120 min): 42.9%
- mean value (n = 4) of % of Compound 1 released (Table 3l: size 4 capsule, 0.5 mg Compound 1, Poloxamer 188:food grade GMS 50:50, 180 min): 61.5%
- mean value (n = 4) of % of Compound 1 released (Table 3l: size 4 capsule, 0.5 mg Compound 1, Poloxamer 188:food grade GMS 50:50, 240 min): 76.9%
- mean value (n = 4) of % of Compound 1 released (Table 3l: size 4 capsule, 0.5 mg Compound 1, Poloxamer 188:food grade GMS 50:50, 360 min): 92.2%
- mean value (n = 4) of % of Compound 1 released (Table 3l: size 4 capsule, 0.5 mg Compound 1, Poloxamer 188:food grade GMS 50:50, 480 min): 96.7%
- mean value (n = 6) of % of Compound 1 released (Table 3m: size 4 capsule, 0.03 mg Compound 1, Poloxamer 188:food grade GMS 30:70, 60 min): 15.3%
- mean value (n = 6) of % of Compound 1 released (Table 3m: size 4 capsule, 0.03 mg Compound 1, Poloxamer 188:food grade GMS 30:70, 120 min): 27.4%
- mean value (n = 6) of % of Compound 1 released (Table 3m: size 4 capsule, 0.03 mg Compound 1, Poloxamer 188:food grade GMS 30:70, 180 min): 38.4%
- mean value (n = 6) of % of Compound 1 released (Table 3m: size 4 capsule, 0.03 mg Compound 1, Poloxamer 188:food grade GMS 30:70, 240 min): 49.0%
- mean value (n = 6) of % of Compound 1 released (Table 3m: size 4 capsule, 0.03 mg Compound 1, Poloxamer 188:food grade GMS 30:70, 360 min): 70.1%
- mean value (n = 6) of % of Compound 1 released (Table 3m: size 4 capsule, 0.03 mg Compound 1, Poloxamer 188:food grade GMS 30:70, 480 min): 85.9%
- mean value (n = 6) of % of Compound 1 released (Table 3m: size 4 capsule, 0.03 mg Compound 1, Poloxamer 188:food grade GMS 30:70, 600 min): 93.5%
- mean value (n = 6) of % of Compound 1 released (Table 3m: size 4 capsule, 0.03 mg Compound 1, Poloxamer 188:food grade GMS 30:70, 720 min): 97.6%
- mean value (n = 6) of % of Compound 1 released (Table 3m: size 4 capsule, 0.03 mg Compound 1, Poloxamer 188:food grade GMS 30:70, 840 min): 99.0%
- mean value (n = 4) of % of Compound 1 released (Table 3n: size 4 capsule, 0.5 mg Compound 1, Poloxamer 188:food grade GMS 30:70, 30 min): 7.9%
- mean value (n = 4) of % of Compound 1 released (Table 3n: size 4 capsule, 0.5 mg Compound 1, Poloxamer 188:food grade GMS 30:70, 60 min): 15.5%
- mean value (n = 4) of % of Compound 1 released (Table 3n: size 4 capsule, 0.5 mg Compound 1, Poloxamer 188:food grade GMS 30:70, 120 min): 26.9%
- mean value (n = 4) of % of Compound 1 released (Table 3n: size 4 capsule, 0.5 mg Compound 1, Poloxamer 188:food grade GMS 30:70, 180 min): 37.9%
- mean value (n = 4) of % of Compound 1 released (Table 3n: size 4 capsule, 0.5 mg Compound 1, Poloxamer 188:food grade GMS 30:70, 240 min): 48.8%
- mean value (n = 4) of % of Compound 1 released (Table 3n: size 4 capsule, 0.5 mg Compound 1, Poloxamer 188:food grade GMS 30:70, 360 min): 68.7%
- mean value (n = 4) of % of Compound 1 released (Table 3n: size 4 capsule, 0.5 mg Compound 1, Poloxamer 188:food grade GMS 30:70, 480 min): 83.4%
- mean value (n = 4) of % of Compound 1 released (Table 3n: size 4 capsule, 0.5 mg Compound 1, Poloxamer 188:food grade GMS 30:70, 600 min): 90.6%
- mean value (n = 4) of % of Compound 1 released (Table 3n: size 4 capsule, 0.5 mg Compound 1, Poloxamer 188:food grade GMS 30:70, 720 min): 94.7%
- mean value (n = 4) of % of Compound 1 released (Table 3n: size 4 capsule, 0.5 mg Compound 1, Poloxamer 188:food grade GMS 30:70, 735 min): 95.7%
- mean value (n = 4) of % of Compound 1 released (Table 3o: size 4 capsule, 0.5 mg Compound 1, Poloxamer 188:food grade GMS 30:70, 30 min): 5.6%
- mean value (n = 4) of % of Compound 1 released (Table 3o: size 4 capsule, 0.5 mg Compound 1, Poloxamer 188:food grade GMS 30:70, 60 min): 13.3%
- mean value (n = 4) of % of Compound 1 released (Table 3o: size 4 capsule, 0.5 mg Compound 1, Poloxamer 188:food grade GMS 30:70, 120 min): 25.5%
- mean value (n = 4) of % of Compound 1 released (Table 3o: size 4 capsule, 0.5 mg Compound 1, Poloxamer 188:food grade GMS 30:70, 180 min): 37.7%
- mean value (n = 4) of % of Compound 1 released (Table 3o: size 4 capsule, 0.5 mg Compound 1, Poloxamer 188:food grade GMS 30:70, 240 min): 49.7%
- mean value (n = 4) of % of Compound 1 released (Table 3o: size 4 capsule, 0.5 mg Compound 1, Poloxamer 188:food grade GMS 30:70, 360 min): 71.2%
- mean value (n = 4) of % of Compound 1 released (Table 3o: size 4 capsule, 0.5 mg Compound 1, Poloxamer 188:food grade GMS 30:70, 480 min): 84.0%
- mean value (n = 4) of % of Compound 1 released (Table 3o: size 4 capsule, 0.5 mg Compound 1, Poloxamer 188:food grade GMS 30:70, 600 min): 89.7%
- mean value (n = 4) of % of Compound 1 released (Table 3o: size 4 capsule, 0.5 mg Compound 1, Poloxamer 188:food grade GMS 30:70, 720 min): 93.1%
- mean value (n = 4) of % of Compound 1 released (Table 3o: size 4 capsule, 0.5 mg Compound 1, Poloxamer 188:food grade GMS 30:70, 735 min): 94.8%
- mean value (n = 4) of % of Compound 1 released (Table 3p: size 4 capsule, 0.5 mg Compound 1, Poloxamer 188:food grade GMS 30:70, 30 min): 7.3%
- mean value (n = 4) of % of Compound 1 released (Table 3p: size 4 capsule, 0.5 mg Compound 1, Poloxamer 188:food grade GMS 30:70, 60 min): 14.3%
- mean value (n = 4) of % of Compound 1 released (Table 3p: size 4 capsule, 0.5 mg Compound 1, Poloxamer 188:food grade GMS 30:70, 120 min): 26.1%
- mean value (n = 4) of % of Compound 1 released (Table 3p: size 4 capsule, 0.5 mg Compound 1, Poloxamer 188:food grade GMS 30:70, 180 min): 38.5%
- mean value (n = 4) of % of Compound 1 released (Table 3p: size 4 capsule, 0.5 mg Compound 1, Poloxamer 188:food grade GMS 30:70, 240 min): 51.1%
- mean value (n = 4) of % of Compound 1 released (Table 3p: size 4 capsule, 0.5 mg Compound 1, Poloxamer 188:food grade GMS 30:70, 360 min): 74.3%
- mean value (n = 4) of % of Compound 1 released (Table 3p: size 4 capsule, 0.5 mg Compound 1, Poloxamer 188:food grade GMS 30:70, 480 min): 87.0%
- mean value (n = 4) of % of Compound 1 released (Table 3p: size 4 capsule, 0.5 mg Compound 1, Poloxamer 188:food grade GMS 30:70, 600 min): 92.3%
- mean value (n = 4) of % of Compound 1 released (Table 3p: size 4 capsule, 0.5 mg Compound 1, Poloxamer 188:food grade GMS 30:70, 720 min): 95.0%
SMILES: O=C(O)COC[C@H]1CC[C@H](COC(=O)N(c2ccccc2)c2ccc(Cl)cc2)CC1 [Compound 1, 2-(((1r,4r)-4-(((4-chlorophenyl)(phenyl)carbamoyloxy)methyl)cyclohexyl)methoxy)acetic acid]
